Data on two compounds can be found in ChEMBL document CHEMBL1122412, “Synthesis of a biologically active fluorescent muramyl dipeptide congener” (1983).

Molecules are shown by their SMILES. Values joined by “and” are separate entries in the source; they are usually repeats but may differ in a detail not shown here. Equal entries are not always repeated.

Holding throughout (type): functional
The species named for test [1] is Cavia porcellus. Put plainly: Ability of P-MDP to inhibit migration of cultured guinea pig peritoneal exudate macrophages at 0.01 ug/mL concentration in expt 3.
The species entered for test [2] is Cavia porcellus. Put plainly: Ability of L,L-MDP to inhibit migration of cultured guinea pig peritoneal exudate macrophages at 1 ug/mL concentration in expt 4.
The species entered for test [3] is Cavia porcellus. Put plainly: Ability of I-MDP to inhibit migration of cultured guinea pig peritoneal exudate macrophages at 0.1 ug/mL concentration in expt 2.
The species named for test [4] is Cavia porcellus. Briefly: Ability of P-MDP to inhibit migration of cultured guinea pig peritoneal exudate macrophages at 0.01 ug/mL concentration in expt 2.
For test [5], the species on record is Cavia porcellus. Briefly: Ability of L,L-MDP to induce spreading of cultured guinea pig peritoneal exudate macrophages at 1 ug/mL concentration.
Test [6] is filed under the species Cavia porcellus. Put plainly: Ability of L,L-MDP to inhibit migration of cultured guinea pig peritoneal exudate macrophages at 0.1 ug/mL concentration in expt 4.
For test [7], the species on record is Cavia porcellus. Briefly: Ability of I-MDP to inhibit migration of cultured guinea pig peritoneal exudate macrophages at 0.1 ug/mL concentration in expt 1.
For test [8], the species on record is Cavia porcellus. Put plainly: Ability of P-MDP to inhibit migration of cultured guinea pig peritoneal exudate macrophages at 10 ug/mL concentration in expt 4.
Test [9] is filed under the species Cavia porcellus. Put plainly: Ability of I-MDP to inhibit migration of cultured guinea pig peritoneal exudate macrophages at 0.01 ug/mL concentration in expt 1.
For test [10], the species on record is Cavia porcellus. Put plainly: Ability of I-MDP to inhibit migration of cultured guinea pig peritoneal exudate macrophages at 10 ug/mL concentration in expt 2.
Test [11] is filed under the species Cavia porcellus. Briefly: Ability of P-MDP to induce spreading of cultured guinea pig peritoneal exudate macrophages at 1 ug/mL concentration.
For test [12], the species on record is Cavia porcellus. Put plainly: Ability of L,L-MDP to induce spreading of cultured guinea pig peritoneal exudate macrophages at 10 ug/mL concentration.
The species entered for test [13] is Cavia porcellus. Put plainly: Ability of I-MDP to inhibit migration of cultured guinea pig peritoneal exudate macrophages at 1 ug/mL concentration in expt 1.
The species entered for test [14] is Cavia porcellus. Briefly: Ability of L,L-MDP to inhibit migration of cultured guinea pig peritoneal exudate macrophages at 10 ug/mL concentration in expt 5.
For test [15], the species on record is Cavia porcellus. Put plainly: Ability of P-MDP to inhibit migration of cultured guinea pig peritoneal exudate macrophages at 0.1 ug/mL concentration in expt 3.
Test [16] is filed under the species Cavia porcellus. Put plainly: Ability of I-MDP to induce spreading of cultured guinea pig peritoneal exudate macrophages at 1 ug/mL concentration.
The species entered for test [17] is Cavia porcellus. Briefly: Ability of I-MDP to induce spreading of cultured guinea pig peritoneal exudate macrophages at 0.01 ug/mL concentration.
The species named for test [18] is Cavia porcellus. Put plainly: Ability of L,L-MDP to induce spreading of cultured guinea pig peritoneal exudate macrophages at 0.01 ug/mL concentration.
The species named for test [19] is Cavia porcellus. Put plainly: Ability of P-MDP to induce spreading of cultured guinea pig peritoneal exudate macrophages at 0.1 ug/mL concentration.
The species entered for test [20] is Cavia porcellus. Briefly: Ability of P-MDP to induce spreading of cultured guinea pig peritoneal exudate macrophages at 0.01 ug/mL concentration.
The species named for test [21] is Cavia porcellus. Briefly: Ability of I-MDP to induce spreading of cultured guinea pig peritoneal exudate macrophages at 10 ug/mL concentration.
The species named for test [22] is Cavia porcellus. Briefly: Ability of I-MDP to induce spreading of cultured guinea pig peritoneal exudate macrophages at 0.1 ug/mL concentration.
The species named for test [23] is Cavia porcellus. Briefly: Ability of P-MDP to inhibit migration of cultured guinea pig peritoneal exudate macrophages at 1 ug/mL concentration in expt 3.
Test [24] is filed under the species Cavia porcellus. Put plainly: Ability of L,L-MDP to induce spreading of cultured guinea pig peritoneal exudate macrophages at 0.1 ug/mL concentration.
The species entered for test [25] is Cavia porcellus. Briefly: Ability of P-MDP to induce spreading of cultured guinea pig peritoneal exudate macrophages at 10 ug/mL concentration.
Test [26] is filed under the species Cavia porcellus. Put plainly: Ability of I-MDP to inhibit migration of cultured guinea pig peritoneal exudate macrophages at 1 ug/mL concentration in expt 2.
Test [27] is filed under the species Cavia porcellus. Put plainly: Ability of L,L-MDP to inhibit migration of cultured guinea pig peritoneal exudate macrophages at 0.01 ug/mL concentration in expt 4.
The species named for test [28] is Cavia porcellus. Briefly: Ability of P-MDP to inhibit migration of cultured guinea pig peritoneal exudate macrophages at 1 ug/mL concentration in expt 4.
For test [29], the species on record is Cavia porcellus. Briefly: Ability of MDP to inhibit migration of cultured guinea pig peritoneal exudate macrophages at 0.1 ug/mL concentration in expt 5.
Test [30] is filed under the species Cavia porcellus. Briefly: Ability of MDP to inhibit migration of cultured guinea pig peritoneal exudate macrophages at 0.1 ug/mL concentration in expt 1.
Test [31] is filed under the species Cavia porcellus. Briefly: Ability of MDP to inhibit migration of cultured guinea pig peritoneal exudate macrophages at 1 ug/mL concentration in expt 5.
The species entered for test [32] is Cavia porcellus. Briefly: Ability of MDP to inhibit migration of cultured guinea pig peritoneal exudate macrophages at 10 ug/mL concentration in expt 4.
For test [33], the species on record is Cavia porcellus. Put plainly: Ability of MDP to inhibit migration of cultured guinea pig peritoneal exudate macrophages at 0.1 ug/mL concentration in expt 2.
Test [34] is filed under the species Cavia porcellus. Briefly: Ability of MDP to induce spreading of cultured guinea pig peritoneal exudate macrophages at 1 ug/mL concentration.
The species entered for test [35] is Cavia porcellus. Put plainly: Ability of MDP to inhibit migration of cultured guinea pig peritoneal exudate macrophages at 1 ug/mL concentration in expt 2.
The species entered for test [36] is Cavia porcellus. Briefly: Ability of MDP to induce spreading of cultured guinea pig peritoneal exudate macrophages at 10 ug/mL concentration.
For test [37], the species on record is Cavia porcellus. Put plainly: Ability of MDP to inhibit migration of cultured guinea pig peritoneal exudate macrophages at 0.1 ug/mL concentration in expt 3.
The species named for test [38] is Cavia porcellus. Briefly: Ability of MDP to inhibit migration of cultured guinea pig peritoneal exudate macrophages at 1 ug/mL concentration in expt 1.
For test [39], the species on record is Cavia porcellus. Put plainly: Ability of MDP to inhibit migration of cultured guinea pig peritoneal exudate macrophages at 10 ug/mL concentration in expt 5.
The species named for test [40] is Cavia porcellus. Put plainly: Ability of MDP to inhibit migration of cultured guinea pig peritoneal exudate macrophages at 0.01 ug/mL concentration in expt 1.
The species entered for test [41] is Cavia porcellus. Briefly: Ability of MDP to inhibit migration of cultured guinea pig peritoneal exudate macrophages at 0.01 ug/mL concentration in expt 2.
The species entered for test [42] is Cavia porcellus. Briefly: Ability of MDP to induce spreading of cultured guinea pig peritoneal exudate macrophages at 0.1 ug/mL concentration.
Test [43] is filed under the species Cavia porcellus. Briefly: Ability of MDP to inhibit migration of cultured guinea pig peritoneal exudate macrophages at 1 ug/mL concentration in expt 4.
For test [44], the species on record is Cavia porcellus. Briefly: Ability of MDP to inhibit migration of cultured guinea pig peritoneal exudate macrophages at 1 ug/mL concentration in expt 3.
The species entered for test [45] is Cavia porcellus. Put plainly: Ability of MDP to inhibit migration of cultured guinea pig peritoneal exudate macrophages at 0.01 ug/mL concentration in expt 3.
The species named for test [46] is Cavia porcellus. Put plainly: Ability of MDP to induce spreading of cultured guinea pig peritoneal exudate macrophages at 0.01 ug/mL concentration.
The species named for test [47] is Cavia porcellus. Put plainly: Ability of MDP to inhibit migration of cultured guinea pig peritoneal exudate macrophages at 0.1 ug/mL concentration in expt 4.

Turning to `CC(=O)N[C@H]1C(O)O[C@H](CO)[C@@H](O)[C@@H]1O[C@H](C)C(=O)N[C@@H](C)C(=O)N[C@H](CCC(=O)O)C(N)=O` (some centres not stated) [MURAMYL DIPEPTIDE], the Migration index in the test listed under Cavia porcellus [1] was 12; in the test listed under Cavia porcellus [2], 52; in the test listed under Cavia porcellus [3], 64 and 68; in the test filed under Cavia porcellus [4], 63; in the test listed under Cavia porcellus [6], 58; in the test filed under Cavia porcellus [7], 68 and 88. For the same compound, the Migration index in the test listed under Cavia porcellus [8] was 52 and 63; in the test listed under Cavia porcellus [9] it was 119 and 92 and 108; in the test filed under Cavia porcellus [10] it was 64; in the test listed under Cavia porcellus [13] it was 70 and 114; in the test filed under Cavia porcellus [14], 65; in the test listed under Cavia porcellus [15] it was 52 and 34 and 26. The Migration index in the test listed under Cavia porcellus [23] is 17 and 34; in the test filed under Cavia porcellus [26], 61 and 64; in the test listed under Cavia porcellus [27] it was 54; in the test listed under Cavia porcellus [28] it was 62. The Spreading in the test filed under Cavia porcellus [5] came out at 51.5%; in the test filed under Cavia porcellus [11] it was 75.5%; in the test filed under Cavia porcellus [12], 76%; in the test listed under Cavia porcellus [16] it was 73%; in the test filed under Cavia porcellus [17], 50%; in the test filed under Cavia porcellus [18] it was 48%. Moreover, the Spreading is given as 80% in the test listed under Cavia porcellus [19]; 62.5% in the test listed under Cavia porcellus [20]; 80% in the test filed under Cavia porcellus [21]; 72.5% in the test listed under Cavia porcellus [22]; 56% in the test listed under Cavia porcellus [24]; 79% in the test listed under Cavia porcellus [25].
`CC(=O)N[C@@H]1[C@@H](O[C@H](C)C(=O)N[C@@H](C)C(=O)N[C@H](CCC(=O)[O-])C(N)=O)[C@H](O)[C@@H](COc2nc(O)nc(N=C3C=CC(=C4c5ccc(O)cc5Oc5cc(O)ccc54)C(C(=O)[O-])=C3)n2)O[C@H]1O.[Na+].[Na+]`: the Migration index in the test filed under Cavia porcellus [29] is recorded as 74; in the test listed under Cavia porcellus [30], 102; in the test listed under Cavia porcellus [31], 70; in the test listed under Cavia porcellus [32], 53; in the test filed under Cavia porcellus [33] it was 52; in the test filed under Cavia porcellus [35], 60. Moreover, the Migration index in the test filed under Cavia porcellus [37] stood at 27; in the test listed under Cavia porcellus [38] it was 63; in the test listed under Cavia porcellus [39], 74; in the test listed under Cavia porcellus [40], 73; in the test filed under Cavia porcellus [41], 84; in the test filed under Cavia porcellus [43], 49. The Migration index in the test listed under Cavia porcellus [44] is 18; in the test filed under Cavia porcellus [45] it was 62; in the test listed under Cavia porcellus [47] it was 51. Further, the Spreading in the test listed under Cavia porcellus [34] is 74.3%; in the test filed under Cavia porcellus [36], 73.3%; in the test listed under Cavia porcellus [42] it was 68.5%; in the test listed under Cavia porcellus [46], 45%.
